Test [1] addresses T1, Transmembrane protease serine 11D (Homo sapiens, UniProt O60235).
T1 sequence (O60235 whole entry): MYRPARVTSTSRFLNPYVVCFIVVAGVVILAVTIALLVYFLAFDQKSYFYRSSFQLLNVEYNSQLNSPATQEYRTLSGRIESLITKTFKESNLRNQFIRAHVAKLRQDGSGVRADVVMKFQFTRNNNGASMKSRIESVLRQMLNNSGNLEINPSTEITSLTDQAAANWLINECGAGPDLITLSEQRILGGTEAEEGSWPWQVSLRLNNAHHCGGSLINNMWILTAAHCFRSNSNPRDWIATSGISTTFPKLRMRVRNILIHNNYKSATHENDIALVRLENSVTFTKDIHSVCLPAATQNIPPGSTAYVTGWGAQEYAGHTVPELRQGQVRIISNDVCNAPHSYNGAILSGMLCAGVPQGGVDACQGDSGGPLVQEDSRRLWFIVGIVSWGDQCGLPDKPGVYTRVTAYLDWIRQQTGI
Put plainly: Inhibition of human recombinant airway trypsin-like protease HAT using D-cyclohexylalanine-Pro-Arg-AMC as substrate by fluorescence plate reader analysis.

In another test the target is Prothrombin (Homo sapiens, UniProt P00734). The test can be described thus: Inhibition of thrombin.
The target in the next test is Coagulation factor X (Homo sapiens, UniProt P00742). Put plainly: Inhibition of factor 10a.
Sequence of Coagulation factor X (P00742 41-179 limits assumed): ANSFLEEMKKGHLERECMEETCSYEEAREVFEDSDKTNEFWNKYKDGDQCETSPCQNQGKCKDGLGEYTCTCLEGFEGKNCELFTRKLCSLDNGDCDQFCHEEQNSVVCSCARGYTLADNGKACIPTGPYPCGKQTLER
Sequence of Coagulation factor X (P00742 235-488 limits assumed): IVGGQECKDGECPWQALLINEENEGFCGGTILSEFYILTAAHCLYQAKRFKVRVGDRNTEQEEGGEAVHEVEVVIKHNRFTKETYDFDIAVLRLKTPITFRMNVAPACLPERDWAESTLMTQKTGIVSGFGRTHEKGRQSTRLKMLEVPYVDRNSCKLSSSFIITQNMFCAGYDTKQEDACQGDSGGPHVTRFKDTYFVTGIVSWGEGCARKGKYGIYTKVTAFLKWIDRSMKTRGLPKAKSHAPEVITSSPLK
A further test concerns the target Plasminogen (Homo sapiens, UniProt P00747). The test can be described thus: Inhibition of plasmin.

The values below come from ChEMBL document CHEMBL1806464, “Development of substrate analogue inhibitors for the human airway trypsin-like protease HAT” (Bioorg Med Chem Lett, 2011).

Sequence of Plasminogen (P00747 97-580 limits assumed): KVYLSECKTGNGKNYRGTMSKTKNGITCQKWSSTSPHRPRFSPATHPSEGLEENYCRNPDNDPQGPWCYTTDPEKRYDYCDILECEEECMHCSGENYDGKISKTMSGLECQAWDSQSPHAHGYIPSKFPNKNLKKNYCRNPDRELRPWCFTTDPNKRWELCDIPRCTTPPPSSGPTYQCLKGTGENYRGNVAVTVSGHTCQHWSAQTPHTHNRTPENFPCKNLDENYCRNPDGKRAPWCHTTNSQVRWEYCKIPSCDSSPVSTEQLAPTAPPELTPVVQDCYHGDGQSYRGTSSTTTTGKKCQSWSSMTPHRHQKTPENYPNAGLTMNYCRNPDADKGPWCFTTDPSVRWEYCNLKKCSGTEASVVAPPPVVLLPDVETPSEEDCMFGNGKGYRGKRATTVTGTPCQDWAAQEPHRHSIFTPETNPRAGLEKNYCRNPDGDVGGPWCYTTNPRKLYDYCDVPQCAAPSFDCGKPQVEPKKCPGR
Sequence of Plasminogen (P00747 581-810 limits assumed): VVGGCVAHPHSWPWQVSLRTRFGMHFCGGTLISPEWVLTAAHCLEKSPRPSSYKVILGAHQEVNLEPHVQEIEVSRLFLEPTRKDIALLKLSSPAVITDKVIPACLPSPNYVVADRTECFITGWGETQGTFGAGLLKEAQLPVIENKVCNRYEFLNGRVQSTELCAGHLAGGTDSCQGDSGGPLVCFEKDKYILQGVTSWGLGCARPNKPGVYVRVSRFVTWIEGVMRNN

The Ki is a measure of affinity in units of concentration, obtained from inhibition or displacement. Consider `CC(C)N1CCN(C(=O)C[C@@H](NS(=O)(=O)Cc2ccccc2)C(=O)N2CCC[C@H]2C(=O)NCc2ccc(C(=N)N)cc2)CC1`, for which the Ki in test [1] was found to be 221 nM. Regarding `N=C(N)c1ccc(CNC(=O)CNC(=O)[C@@H](CCCN=C(N)N)NS(=O)(=O)Cc2ccccc2)cc1`, the inhibition constant (Ki) in test [1] is 430 nM. Still for that read-out and setting: then `CC[C@H](C)[C@H](NCc1ccc(C(=N)N)cc1)C(=O)[C@@H](CCCN=C(N)N)NS(=O)(=O)Cc1ccccc1`, with 23 nM; and `CC(C)(C)OC(=O)C[C@H](NCc1ccc(C(=N)N)cc1)C(=O)[C@@H](CCCNC(=N)N)NS(=O)(=O)Cc1ccccc1`, with 512 nM. As to `N=C(N)c1ccc(CNC(=O)[C@@H]2CCCN2C(=O)[C@@H](Cc2ccc(C(=N)N)cc2)NS(=O)(=O)Cc2ccccc2)cc1`, the Ki in test [1] stood at 168 nM. Same read-out and setting: the result for `[H]/N=C(\N)c1ccc(CNC(=O)[C@@H]2CCCN2C(=O)[C@@H](Cc2ccccc2)NS(=O)(=O)Cc2ccccc2)cc1` reads 98 nM; that for `CC(C)C[C@@H](NS(=O)(=O)Cc1ccccc1)C(=O)N1CCC[C@H]1C(=O)NCc1ccc(C(=N)N)cc1`, 120 nM. As for `N#Cc1ccc(C[C@@H](NS(=O)(=O)Cc2ccccc2)C(=O)N2CCC[C@H]2C(=O)NCc2ccc(C(=N)N)cc2)cc1`, the inhibition constant (Ki) in test [1] was 311 nM.

Regarding `N=C(N)c1ccc(CNC(=O)[C@@H]2CCCN2C(=O)[C@@H](CC(=O)O)NS(=O)(=O)Cc2ccccc2)cc1`, the Ki in test [1] was 1420 nM. As for `N=C(N)c1ccc(CNC(=O)[C@@H]2CCCN2C(=O)[C@@H](CC(=O)N2CCN(c3ncccn3)CC2)NS(=O)(=O)Cc2ccccc2)cc1`, in test [1], the inhibition constant (Ki) was found to be 43 nM.

In the case of `N=C(N)NCCC[C@@H](NS(=O)(=O)Cc1ccccc1)C(=O)[C@H](CO)NCc1ccc(C(=N)N)cc1`, the Ki amounted to 34 nM in test [1], 1610 nM on Prothrombin, 14.5 nM at Coagulation factor X and 161 nM at Plasminogen.

Take `CC(C)[C@H](NCc1ccc(C(=N)N)cc1)C(=O)[C@@H](CCCNC(=N)N)NS(=O)(=O)Cc1ccccc1`: the inhibition constant Ki in test [1] turned out to be 22 nM; on Prothrombin, 66 nM; at Coagulation factor X it was 21 nM; at Plasminogen, 2810 nM. Regarding `CC(C)[C@@H](NS(=O)(=O)Cc1ccccc1)C(=O)N1CCC[C@H]1C(=O)NCc1ccc(C(=N)N)cc1`, the Ki in test [1] was found to be 76 nM. For the molecule `N=C(N)c1ccc(CNC(=O)[C@@H]2CCCN2C(=O)[C@@H](CCC(=O)N2CCN(C(=O)OCc3ccccc3)CC2)NS(=O)(=O)Cc2ccccc2)cc1`, the inhibitory constant (Ki) in test [1] came to 38 nM; on Prothrombin it was 9.8 nM; at Coagulation factor X it was 397 nM; on Plasminogen, 1160 nM. With `N=C(N)c1ccc(CNC(=O)[C@@H]2CCCN2C(=O)[C@@H](CC(=O)N2CCN(CCO)CC2)NS(=O)(=O)Cc2ccccc2)cc1`, the inhibitory constant (Ki) in test [1] was found to be 210 nM. The same measure, in the same setting: the result for `N=C(N)c1ccc(CNC(=O)[C@@H]2CCCN2C(=O)[C@@H](CC(=O)N2CCNCC2)NS(=O)(=O)Cc2ccccc2)cc1` reads 202 nM. Still for that read-out and setting: then `N=C(N)NCCC[C@@H](NS(=O)(=O)Cc1ccccc1)C(=O)[C@H](CC(=O)O)NCc1ccc(C(=N)N)cc1`, with 422 nM. Take `C[C@H](NCc1ccc(C(=N)N)cc1)C(=O)[C@@H](CCCN=C(N)N)NS(=O)(=O)Cc1ccccc1`: the inhibition constant (Ki) in test [1] came to 30 nM; on Prothrombin, 74 nM; at Coagulation factor X it was 1.4 nM; on Plasminogen it was 590 nM. On to `N=C(N)c1ccc(CNC(=O)[C@@H]2CCCN2C(=O)[C@@H](CC(=O)N2CCN(C(=O)OCc3ccccc3)CC2)NS(=O)(=O)Cc2ccccc2)cc1`, for which, in test [1], the inhibitory constant (Ki) was 135 nM. For the molecule `N=C(N)c1ccc(CNC(=O)[C@@H]2CCCN2C(=O)[C@@H](CCC(=O)N2CCNCC2)NS(=O)(=O)Cc2ccccc2)cc1`, the Ki in test [1] amounted to 68 nM; at Prothrombin, 13.5 nM; on Coagulation factor X, 565 nM; on Plasminogen it was 114 nM. `N=C(N)c1ccc(CNC(=O)[C@@H]2CCCN2C(=O)[C@@H](CC(=O)N2CCN(Cc3ccccc3)CC2)NS(=O)(=O)Cc2ccccc2)cc1`: the Ki in test [1] is 158 nM. For `N=C(N)c1ccc(CNC(=O)[C@@H]2CCCN2C(=O)[C@@H](CCc2ccccc2)NS(=O)(=O)Cc2ccccc2)cc1`, the Ki in test [1] was 63 nM. With `CC(C)(C)OC(=O)CC[C@@H](NS(=O)(=O)Cc1ccccc1)C(=O)N1CCC[C@H]1C(=O)NCc1ccc(C(=N)N)cc1`, the inhibition constant (Ki) in test [1] amounted to 36 nM; on Prothrombin, 6.7 nM; at Coagulation factor X, 31 nM; at Plasminogen it was 1520 nM. With `CC(C)(C)OC(=O)C[C@@H](NS(=O)(=O)Cc1ccccc1)C(=O)N1CCC[C@H]1C(=O)NCc1ccc(C(=N)N)cc1`, the Ki in test [1] turned out to be 38 nM. Still for that read-out and setting: then `N=C(N)NCCC[C@H](NCc1ccc(C(=N)N)cc1)C(=O)[C@@H](CCCNC(=N)N)NS(=O)(=O)Cc1ccccc1`, with 457 nM. For `CN(C)CCCN1CCN(C(=O)C[C@@H](NS(=O)(=O)Cc2ccccc2)C(=O)N2CCC[C@H]2C(=O)NCc2ccc(C(=N)N)cc2)CC1`, the Ki in test [1] was 149 nM. Same read-out and setting: the result for `Cc1ccc(C)c(N2CCN(C(=O)C[C@@H](NS(=O)(=O)Cc3ccccc3)C(=O)N3CCC[C@H]3C(=O)NCc3ccc(C(=N)N)cc3)CC2)c1` reads 73 nM; that for `N=C(N)c1ccc(CNC(=O)[C@H](CCCCNC(=O)OCc2ccccc2)NC(=O)[C@@H](CO)NS(=O)(=O)Cc2ccccc2)cc1`, 51 nM. On the same count and under the same terms, then `N=C(N)c1ccc(CNC(=O)[C@@H]2CCCN2C(=O)[C@@H](CC(=O)N2CCOCC2)NS(=O)(=O)Cc2ccccc2)cc1`, with 183 nM; and `CC(C)C[C@H](NCc1ccc(C(=N)N)cc1)C(=O)[C@@H](CCCN=C(N)N)NS(=O)(=O)Cc1ccccc1`, with 47 nM. Regarding `N=C(N)c1ccc(CNC(=O)[C@@H]2CCCN2C(=O)[C@@H](CCCCN=C(N)N)NS(=O)(=O)Cc2ccccc2)cc1`, the values for the Ki at Prothrombin, at Coagulation factor X and at Plasminogen were 0.39 nM, 2.7 nM and 17.5 nM, respectively. On to `N=C(N)NCCC[C@@H](NS(=O)(=O)Cc1ccccc1)C(=O)[C@H](Cc1ccccc1)NCc1ccc(C(=N)N)cc1`, for which the Ki in test [1] came to 57 nM. Same read-out and setting: then `N=C(N)c1ccc(CNC(=O)[C@@H]2CCCN2C(=O)[C@@H](CCCCNC(=O)OCc2ccccc2)NS(=O)(=O)Cc2ccccc2)cc1`, with 53 nM. With `N=C(N)c1ccc(CNC(=O)[C@@H]2CCCN2C(=O)[C@@H](CCCCN)NS(=O)(=O)Cc2ccccc2)cc1`, the inhibitory constant (Ki) in test [1] is 40 nM; on Prothrombin it was 1 nM; on Coagulation factor X, 52 nM; at Plasminogen, 63 nM. With `N=C(N)c1ccc(CN[C@@H](CCCCNC(=O)OCc2ccccc2)C(=O)[C@@H](CCCN=C(N)N)NS(=O)(=O)Cc2ccccc2)cc1`, the inhibition constant (Ki) in test [1] was 34 nM. Still for that read-out and setting: then `N=C(N)c1ccc(CNC(=O)[C@@H]2CCCN2C(=O)[C@@H](CC2CCCCC2)NS(=O)(=O)Cc2ccccc2)cc1`, with 108 nM.
